Measurements as given in US20250171432A1, “COMPOUNDS AND METHODS OF USE” (Tango Therapeutics, Inc., priority 2022, published 2025).

How the values were obtained:
Format in all cases: cell-based
[1] = tested on: SDMA (PRMT5 activity) in HAP1 MTAP-intact cell line; assay: SDMA in-cell western assay, HAP1 MTAP-intact; details: SDMA in-cell western, HAP1 MTAP-intact cells, 24 hours compound incubation
Procedure: (§1) The SAM-cooperative PRMT5 inhibitor, GSK3326595, was sourced from SelleckChem and maintained as a 10 mM DMSO stock. All test compounds are maintained as 10 mM DMSO stocks
(§2) On Day 0, MTAP-intact or MTAP-deleted cells are seeded in a 384-well plate, and incubated in a humidified, 5% CO2 tissue culture incubator for 16-24 hours. On Day 1, the test compounds are dispensed to wells at defined concentrations using a Tecan D300e digital dispenser (n=4), and the volume of DMSO is normalized to highest class volume. Each plate includes wells dosed with defined concentrations of GSK33226595 as a plate control. The compounds are incubated with cells for 24 hours in a humidified, 5% CO2 tissue culture incubator.
(§3) On Day 2, the compound-treated cells are fixed with a final concentration of 4% formaldehyde. The cells are then washed/permeabilized with 1×PBS+0.1% Triton X-100, and then blocked with 5% goat serum/1×TBS.
(§4) The cells are washed with 1×PBS+0.1% Triton X-100, and then washed again with ddH20. The plates are then imaged using a NIR fluorescent imager (LiCor Odyssey).
(§5) For data analysis, the SDMA signal is normalized to the DRAQ5 signal. Assay background is determined by the signal from wells treated with 1 μM GSK3326595, and subtracted from every well. The data are plotted as % of the DMSO control wells for the MTAP-intact and the MTAP-deleted cell lines independently, and fitted to the 4-parameter logistic (4-PL) Hill equation with maximal effect constrained to 0. The fit was performed using GraphPad Prism or the default IC50 fitting procedure in Dotmatics Studies 5.4 as part of a customized data analysis protocol.

[2] = tested on: HAP1 MTAP-deleted cell line; assay: Viability assay (CellTiter-Glo), HAP1 MTAP-deleted; details: HAP1 MTAP-deleted cells, 7 days
Procedure: All test compounds are maintained as 10 mM DMSO stocks.
On Day 0, MTAP-intact and MTAP-deleted cells are seeded in a 96-well plate, and incubated in a humidified, 5 or 10% CO2 tissue culture incubator for 16-24 hours. On Day 1, the test compounds are dispensed to wells at defined concentrations using a Tecan D300e digital dispenser (n=3), and the volume of DMSO is normalized to highest class volume (0.2%). The compound-treated plates are incubated for 7 days in a humidified, 5 or 10% CO2 tissue culture incubator.
On Day 7, the plates are removed from the tissue culture incubator and allowed to equilibrate to room temperature. Then either a ½% volume CellTiter-Glo Luminescent Cell Viability Assay reagent (Promega G7572) is added to each well, or the media is removed from every well and a 1:3 dilution of CellTiter-Glo 2.0 Cell Viability Assay reagent (Promega G9241) in 1×PBS is added. Ten minutes after addition, the luminescent signal is detected by an Envision plate reader. The data are plotted as % of the DMSO control wells for the MTAP-intact and the MTAP-deleted cell lines independently, and fitted to the 4-parameter logistic (4-PL) Hill equation with maximal effect constrained to 0. The fit was performed using GraphPad Prism or the default IC50 fitting procedure in Dotmatics Studies 5.4 as part of a customized data analysis protocol.

[3] = tested on: SDMA (PRMT5 activity) in HAP1 MTAP-deleted cell line; assay: SDMA in-cell western assay, HAP1 MTAP-deleted; details: for IC50 / IC90: SDMA in-cell western, HAP1 MTAP-deleted cells, 24 hours compound incubation; for Hap1 MTAP intact/deleted ratio: ratio of SDMA IC50 in HAP1 MTAP-intact to HAP1 MTAP-deleted cell line
Procedure: as §1, §2, §3, §4, §5

Row | Compound | IC50 ([1]; Homo sapiens, HAP1, 24 h) [nM] | IC50 ([3]; Homo sapiens) [nM] | IC90 ([3]; Homo sapiens) [nM] | IC50 [1] [nM] | IC50 [3] [nM] | IC90 [3] [nM] | IC50 ([2]; Homo sapiens, 168 h) [nM] | Hap1 MTAP intact/deleted ratio [3] | IC50 [2] [nM]
1 | Cc1cc2[nH]c(C(=O)N3C[C@@H](C)CC[C@@H]3c3ccc4sc(C5CCN(C)CC5)nc4c3)cc2nc1N [Compound 110, (5-amino-6-methyl-1H-pyrrolo[3,2-b]pyridin-2-yl)((2R,5S)-5-methyl-2-(2-(1-methylpiperidin-4-yl)benzo[d]thiazol-5-yl)piperidin-1-yl)methanone] | > 50 | < 5 | < 75 |  |  |  | < 100 | A (“A” indicates an IC50 ratio greater than or equal to 30 fold) | 
2 | CCc1cc(NC(=O)C(=O)N2C[C@@H](C)CC[C@@H]2c2ccc3cn([C@@H]4CCN(C)C4)nc3c2)cnc1N [Compound 112, N-(6-amino-5-ethylpyridin-3-yl)-2-((2R,5S)-5-methyl-2-(2-((R)-1-methylpyrrolidin-3-yl)-2H-indazol-6-yl)piperidin-1-yl)-2-oxoacetamide] | 5 to 50 | < 5 | < 75 |  |  |  | < 100 | B (“B” indicates an IC50 ratio greater than or equal to 15 fold but lower than 30 fold) | 
3 | CCc1cc(NC(=O)C(=O)N2C[C@@H](C)CC[C@@H]2c2ccc3nn(CCN(C)C)cc3c2)cnc1N [Compound 72] | > 50 | 5 to 50 | > 125 |  |  |  | < 100 | A (“A” indicates an IC50 ratio greater than or equal to 30 fold) | 
4 | CCc1cc(NC(=O)C(=O)N2C[C@@H](C)CC[C@@H]2c2ccc3cn(C4CCCN(C)C4)nc3c2)cnc1N (single isomer, unassigned) [Compound 80] | 5 to 50 | < 5 | < 75 |  |  |  | < 100 | C (“C” indicates an IC50 ratio of less than 15 fold) | 
5 | CCc1cc(NC(=O)C(=O)N2C[C@@H](C)CC[C@@H]2c2ccc3cccnc3c2)cnc1N [Compound 76, N-(6-amino-5-ethylpyridin-3-yl)-2-((2R,5S)-5-methyl-2-(quinolin-7-yl)piperidin-1-yl)-2-oxoacetamide] | > 50 | 5 to 50 | > 125 |  |  |  | 100 to 1000 | A (“A” indicates an IC50 ratio greater than or equal to 30 fold) | 
6 | [2H]C([2H])([2H])N1CCC(c2nc3cc([C@H]4CC[C@H](C)CN4C(=O)C(=O)Nc4cnc(OC)c(C(N)=O)c4)ccc3s2)CC1 [Compound 5, 2-methoxy-5-[[2-oxo-2-[(2R,5S)-5-methyl-2-[2-[1-(trideuteriomethyl)-4-piperidyl]-1,3-benzothiazol-5-yl]-1-piperidyl]acetyl]amino]pyridine-3-carboxamide] |  |  |  |  |  |  | < 100 |  | 
7 | [2H][13C]([2H])([2H])N1CCC(c2nc3cc([C@H]4CC[C@H](C)CN4C(=O)C(=O)Nc4cnc(N)c(CC)c4)ccc3s2)CC1 [Compound 129, N-(6-amino-5-ethyl-3-pyridyl)-2-oxo-2-[(2R,5S)-5-methyl-2-[2-[1-(trideuterio(1^13C)methyl)-4-piperidyl]-1,3-benzothiazol-5-yl]-1-piperidyl]acetamide] |  |  |  |  |  |  | < 100 |  | 

Second part, led by results:

Row | IC50 ([1]; Homo sapiens, HAP1, 24 h) [nM] | IC50 ([3]; Homo sapiens) [nM] | IC90 ([3]; Homo sapiens) [nM] | IC50 [1] [nM] | IC50 [3] [nM] | IC90 [3] [nM] | Compound | IC50 ([2]; Homo sapiens, 168 h) [nM] | Hap1 MTAP intact/deleted ratio [3] | IC50 [2] [nM]
8 | 5 to 50 | < 5 | < 75 |  |  |  | CCc1cc(NC(=O)C(=O)N2C[C@@H](C)CC[C@@H]2c2ccc3sc(C4CC(C5CN(C)C5)C4)nc3c2)cnc1N (stereo partly drawn) [Compound 100, N-(6-amino-5-ethylpyridin-3-yl)-2-((2R,5S)-5-methyl-2-(2-(3-(1-methylazetidin-3-yl)cyclobutyl)benzo[d]thiazol-5-yl)piperidin-1-yl)-2-oxoacetamide] | < 100 | B (“B” indicates an IC50 ratio greater than or equal to 15 fold but lower than 30 fold) | 
9 | > 50 | < 5 | < 75 |  |  |  | COc1ncc(NC(=O)C(=O)N2C[C@@H](C)CC[C@@H]2c2ccc3sc([C@H](C)CN(C)C)nc3c2)cc1C(N)=O [Compound 11, 2-methoxy-5-[[2-oxo-2-[(2R,5S)-5-methyl-2-[2-[(^1S)-2-(dimethylamino)-1-methyl-ethyl]-1,3-benzothiazol-5-yl]-1-piperidyl]acetyl]amino]pyridine-3-carboxamide] | < 100 | A (“A” indicates an IC50 ratio greater than or equal to 30 fold) | 
10 | > 50 | < 5 | < 75 |  |  |  | COc1ncc(NC(=O)C(=O)N2C[C@@H](C)CC[C@@H]2c2ccc3ccc(C4CCN(C)CC4)nc3c2)cc1C(N)=O [Compound 88, 2-methoxy-5-(2-((2R,5S)-5-methyl-2-(2-(1-methylpiperidin-4-yl)quinolin-7-yl)piperidin-1-yl)-2-oxoacetamido)nicotinamide] | < 100 | A (“A” indicates an IC50 ratio greater than or equal to 30 fold) | 
11 | > 50 | < 5 | < 75 |  |  |  | CCc1cc(NC(=O)C(=O)N2C[C@@H](C)CC[C@@H]2c2ccc3sc(CC(C)(C)N(C)C)nc3c2)cnc1N [Compound 89, N-(6-amino-5-ethylpyridin-3-yl)-2-((2R,5S)-2-(2-(2-(dimethylamino)-2-methylpropyl)benzo[d]thiazol-5-yl)-5-methylpiperidin-1-yl)-2-oxoacetamide] | < 100 | A (“A” indicates an IC50 ratio greater than or equal to 30 fold) | 
12 | > 50 | < 5 | < 75 |  |  |  | COc1ncc(NC(=O)C(=O)N2C[C@@H](C)CC[C@@H]2c2ccc3sc(CC4CCN(C)CC4)nc3c2)cc1C(N)=O [Compound 20, 2-methoxy-5-(2-((2R,5S)-5-methyl-2-(2-((1-methylpiperidin-4-yl)methyl)benzo[d]thiazol-5-yl)piperidin-1-yl)-2-oxoacetamido)nicotinamide] | < 100 | A (“A” indicates an IC50 ratio greater than or equal to 30 fold) | 
13 | > 50 | < 5 | < 75 |  |  |  | COc1ncc(NC(=O)C(=O)N2C[C@@H](C)CC[C@@H]2c2ccc3sc([C@H]4C[C@@H](N(C)C)C4)nc3c2)cc1C(N)=O (single isomer, unassigned) [Compound 24] | < 100 | A (“A” indicates an IC50 ratio greater than or equal to 30 fold) | 
14 |  |  |  | 5 to 50 | < 5 | < 75 | C[C@H]1CC[C@H](c2ccc3sc(C4CCN(C)C(C)(C)C4)nc3c2)N(C(=O)C(=O)Nc2cnc(N)c(C3COC3)c2)C1 (single isomer, unassigned) [Compound 1] |  | C (“C” indicates an IC50 ratio of less than 15 fold) | < 100
15 | > 50 | < 5 | < 75 |  |  |  | CCc1cc(NC(=O)C(=O)N2C[C@@H](C)CC[C@@H]2c2ccc3sc([C@H]4CCN(C)C[C@@H]4OC)nc3c2)cnc1N (single isomer, unassigned) [Compound 90] | < 100 | A (“A” indicates an IC50 ratio greater than or equal to 30 fold) | 
16 | 5 to 50 | < 5 | < 75 |  |  |  | C[C@H]1CC[C@H](c2ccc3sc(C4CCN(C)C(C)(C)C4)nc3c2)N(C(=O)C(=O)Nc2cnc(N)c(C3COC3)c2)C1 (single isomer, unassigned) [Compound 34] | < 100 | C (“C” indicates an IC50 ratio of less than 15 fold) | 
17 | > 50 | < 5 | < 75 |  |  |  | COc1ncc(NC(=O)C(=O)N2C[C@@H](C)CC[C@@H]2c2ccc3sc(C[C@H](C)N(C)C)nc3c2)cc1C(N)=O [Compound 98, 5-(2-((2R,5S)-2-(2-((S)-2-(dimethylamino)propyl)benzo[d]thiazol-5-yl)-5-methylpiperidin-1-yl)-2-oxoacetamido)-2-methoxynicotinamide] |  | A (“A” indicates an IC50 ratio greater than or equal to 30 fold) | 
